From ChEMBL document CHEMBL3885881, “DrugMatrix”

Organism: Rattus norvegicus
Experiment: DrugMatrix - Regimen: Daily Repeat
Type: toxicity, organism-based, Sprague-Dawley
Parameters: regimen Daily Repeat, gender Male, age 6-8 weeks
Conditions: in vivo, po, route oral GAVAGE, […]; for ABSOLUTE BASOPHIL / ABSOLUTE EOSINOPHIL / ABSOLUTE LYMPHOCYTE / ABSOLUTE MONOCYTE / ABSOLUTE SEGMENTED NEUTROPHIL / BASOPHIL / EOSINOPHIL / ERYTHROCYTE COUNT / HEMATOCRIT / HEMOGLOBIN / LEUKOCYTE COUNT / LYMPHOCYTE / MEAN CORPUSCULAR HEMOGLOBIN / MEAN CORPUSCULAR HEMOGLOBIN CONCENTRATION / MEAN CORPUSCULAR VOLUME / MONOCYTE / NEUTROPHIL / NUCLEATED RED BLOOD CELLS / PLATELET COUNT: tissue Blood; for ALANINE AMINOTRANSFERASE / ALBUMIN / ALKALINE PHOSPHATASE / ASPARTATE AMINOTRANSFERASE / BLOOD UREA NITROGEN / CARBON DIOXIDE / CHLORIDE / CHOLESTEROL / CREATINE PHOSPHOKINASE / CREATININE / GLUCOSE / LACTATE DEHYDROGENASE / LIPASE / PHOSPHORUS / POTASSIUM / SODIUM / TOTAL BILIRUBIN / TOTAL PROTEIN / URIC ACID: tissue Plasma
[1] = 0 mg/kg, 72 h, dose level Control, time 3 day
[2] = 0 mg/kg, 120 h, dose level Control, time 5 day
[3] = 30 mg/kg, 72 h, dose level Low, time 3 day

## CCC(C)n1ncn(-c2ccc(N3CCN(c4ccc(OCC5COC(Cn6cncn6)(c6ccc(Cl)cc6Cl)O5)cc4)CC3)cc2)c1=O (centres undefined) [ITRACONAZOLE]
[1]
  ABSOLUTE BASOPHIL: 0 CELLS/uL
  ABSOLUTE EOSINOPHIL: 104.17 CELLS/uL
  ABSOLUTE LYMPHOCYTE: 14547 CELLS/uL
  ABSOLUTE MONOCYTE: 292 CELLS/uL
  ABSOLUTE SEGMENTED NEUTROPHIL: 1640.17 CELLS/uL
  BASOPHIL: 0%
  EOSINOPHIL: 0.67%
  ERYTHROCYTE COUNT: 5.35 x10E6/uL
  HEMATOCRIT: 33.67%
  HEMOGLOBIN: 13.38 G/DL
  LEUKOCYTE COUNT: 16.58 x10E3/uL
  LYMPHOCYTE: 87.5%
  MEAN CORPUSCULAR HEMOGLOBIN: 25.05 pg
  MEAN CORPUSCULAR HEMOGLOBIN CONCENTRATION: 39.78 G/DL
  MEAN CORPUSCULAR VOLUME: 62.97 fL
  MONOCYTE: 1.83%
  NEUTROPHIL: 10%
  NUCLEATED RED BLOOD CELLS: 0 /100WBC
  PLATELET COUNT: 1274.5 x10E3/uL
  ALANINE AMINOTRANSFERASE: 76.83 u/L
  ALBUMIN: 3.97 G/DL
  ALKALINE PHOSPHATASE: 347 u/L
  ASPARTATE AMINOTRANSFERASE: 97.17 u/L
  BLOOD UREA NITROGEN: 14.33 mg/dL
  CARBON DIOXIDE: 25.5 mmol/L
  CHLORIDE: 100.33 MEQ/L
  CHOLESTEROL: 68.67 mg/dL
  CREATINE PHOSPHOKINASE: 659.17 u/L
  CREATININE: 0.32 mg/dL
  GLUCOSE: 160.67 mg/dL
  LACTATE DEHYDROGENASE: 271.5 u/L
  LIPASE: 11.67 u/L
  PHOSPHORUS: 10.65 mg/dL
  POTASSIUM: 5.95 MEQ/L
  SODIUM: 139.65 MEQ/L
  TOTAL BILIRUBIN: 0.2 mg/dL
  TOTAL PROTEIN: 5.72 G/DL
  URIC ACID: 1.37 mg/dL
[2]
  ABSOLUTE BASOPHIL: 0 CELLS/uL
  ABSOLUTE EOSINOPHIL: 331.5 CELLS/uL
  ABSOLUTE LYMPHOCYTE: 15021.67 CELLS/uL
  ABSOLUTE MONOCYTE: 376.5 CELLS/uL
  ABSOLUTE SEGMENTED NEUTROPHIL: 3070.33 CELLS/uL
  BASOPHIL: 0%
  EOSINOPHIL: 1.83%
  ERYTHROCYTE COUNT: 5.24 x10E6/uL
  HEMATOCRIT: 33.22%
  HEMOGLOBIN: 13.2 G/DL
  LEUKOCYTE COUNT: 18.8 x10E3/uL
  LYMPHOCYTE: 79.67%
  MEAN CORPUSCULAR HEMOGLOBIN: 25.17 pg
  MEAN CORPUSCULAR HEMOGLOBIN CONCENTRATION: 39.73 G/DL
  MEAN CORPUSCULAR VOLUME: 63.38 fL
  MONOCYTE: 2%
  NEUTROPHIL: 16.5%
  NUCLEATED RED BLOOD CELLS: 0 /100WBC
  PLATELET COUNT: 1142.67 x10E3/uL
  ALANINE AMINOTRANSFERASE: 52.5 u/L
  ALBUMIN: 3.9 G/DL
  ALKALINE PHOSPHATASE: 284.5 u/L
  ASPARTATE AMINOTRANSFERASE: 81.33 u/L
  BLOOD UREA NITROGEN: 16 mg/dL
  CARBON DIOXIDE: 25.33 mmol/L
  CHLORIDE: 99.5 MEQ/L
  CHOLESTEROL: 74.83 mg/dL
  CREATINE PHOSPHOKINASE: 448.33 u/L
  CREATININE: 0.37 mg/dL
  GLUCOSE: 164.17 mg/dL
  LACTATE DEHYDROGENASE: 290.67 u/L
  LIPASE: 6.83 u/L
  PHOSPHORUS: 11.5 mg/dL
  POTASSIUM: 6.28 MEQ/L
  SODIUM: 139.5 MEQ/L
  TOTAL BILIRUBIN: 0.13 mg/dL
  TOTAL PROTEIN: 5.55 G/DL
  URIC ACID: 1.12 mg/dL
[3]
  ABSOLUTE BASOPHIL: 0 CELLS/uL
  ABSOLUTE EOSINOPHIL: 60 CELLS/uL
  ABSOLUTE LYMPHOCYTE: 9936.67 CELLS/uL
  ABSOLUTE MONOCYTE: 160.67 CELLS/uL
  ABSOLUTE SEGMENTED NEUTROPHIL: 876 CELLS/uL
  BASOPHIL: 0%
  EOSINOPHIL: 0.67%
  ERYTHROCYTE COUNT: 6.06 x10E6/uL
  HEMATOCRIT: 37.97%
  HEMOGLOBIN: 14.57 G/DL
  LEUKOCYTE COUNT: 11.03 x10E3/uL
  LYMPHOCYTE: 89.67%
  MEAN CORPUSCULAR HEMOGLOBIN: 24 pg
  MEAN CORPUSCULAR HEMOGLOBIN CONCENTRATION: 38.4 G/DL
  MEAN CORPUSCULAR VOLUME: 62.6 fL
  MONOCYTE: 1.33%
  NEUTROPHIL: 8.33%
  NUCLEATED RED BLOOD CELLS: 0 /100WBC
  PLATELET COUNT: 1209.33 x10E3/uL
  ALANINE AMINOTRANSFERASE: 56 u/L
  ALBUMIN: 4.23 G/DL
  ALKALINE PHOSPHATASE: 522.33 u/L
  ASPARTATE AMINOTRANSFERASE: 74.33 u/L
  BLOOD UREA NITROGEN: 11 mg/dL
  CARBON DIOXIDE: 22.67 mmol/L
  CHLORIDE: 100.33 MEQ/L
  CHOLESTEROL: 56 mg/dL
  CREATINE PHOSPHOKINASE: 240 u/L
  CREATININE: 0.11 mg/dL
  GLUCOSE: 184.33 mg/dL
  LACTATE DEHYDROGENASE: 106 u/L
  LIPASE: 10 u/L
  PHOSPHORUS: 12.87 mg/dL
  POTASSIUM: 6.49 MEQ/L
  SODIUM: 141.73 MEQ/L
  TOTAL BILIRUBIN: 0.17 mg/dL
  TOTAL PROTEIN: 6.4 G/DL
  URIC ACID: 1.97 mg/dL
